From ChEMBL document CHEMBL3352047, “Hybrids of phenylsulfonylfuroxan and coumarin as potent antitumor agents” (J Med Chem, 2014)
The source made the active and inactive calls. No cut-off for these calls is given here.

What was measured:
[1] = test system: A2780; assay: Induction of nitric oxide generation in human A2780 cells after 1 hr by DAF-FM DA staining-based assay; format: functional, cell-based
[2] = test system: A2780; assay: Induction of nitric oxide generation in human A2780 cells at 500 nM after 24 hrs by Griess assay in presence of hemoglobin; format: functional, cell-based
[3] = test system: A2780/CDDP; assay: Induction of nitric oxide generation in human A2780/CDDP cells at 500 nM after 24 hrs by Griess assay in presence of hemoglobin; format: functional, cell-based
[4] = test system: HUVEC; assay: Antiangiogenic activity against HUVEC assessed as suppression of tubule formation at 10 nM after overnight incubation by matrigel assay; format: functional, cell-based; settings: Homo sapiens
[5] = test system: A2780; assay: Antiproliferative activity against human A2780 cells after 48 hrs by MTT assay; settings: A2780, 48 h
[6] = test system: A2780; assay: Cell cycle arrest in human A2780 cells assessed as accumulation at G2/M phase after 24 hrs by propidium iodide staining-based flow cytometry; format: functional
[7] = test system: A2780; assay: Induction of nitric oxide generation in human A2780 cells at 100 uM after 150 mins by Griess assay; format: functional
[8] = Antiproliferative activity against human SKOV3 cells after 48 hrs by MTT assay; settings: SK-OV-3, 48 h
[9] = test system: A2780; assay: Induction of apoptosis in human A2780 cells assessed as late apoptotic cells at 20 to 80 nM after 24 hrs by annexin-V/propidium iodide staining-based flow cytometry; format: functional
[10] = test system: A2780; assay: Induction of apoptosis in human A2780 cells assessed as increase in PARP-1 cleavage at 100 to 1000 nM after 24 hrs by Western blotting analysis; format: functional, cell-based
[11] = test system: A2780; assay: Induction of apoptosis in human A2780 cells assessed as increase in p53 phosphorylation at 100 to 1000 nM after 24 hrs by Western blotting analysis; format: functional, cell-based
[12] = test system: A2780; assay: Induction of apoptosis in human A2780 cells assessed as early apoptotic cells at 20 to 80 nM after 24 hrs by annexin-V/propidium iodide staining-based flow cytometry; format: functional
[13] = test system: A2780; assay: Induction of apoptosis in human A2780 cells assessed as increase in Bax protein expression after 24 hrs by Western blotting analysis; format: functional, cell-based
[14] = test system: A2780; assay: Anticlonogenic activity against human A2780 cells assessed as inhibition of colony formation of cells at 5 to 20 nM after 48 hrs by gentian violet staining-based assay; format: functional, cell-based
[15] = Acute toxicity in KM mouse assessed as survival at 250 mg/kg, ip measured on day 14 relative to vehicle-treated control; format: organism-based; design: dose 250 mg/kg, route intraperitoneal; settings: in vivo
[16] = test system: A2780; assay: Induction of nitric oxide generation in human A2780 cells at 100 to 1000 nM after 1 hr by DAF-FM DA staining-based assay; format: functional, cell-based
[17] = test system: A2780; assay: Antitumor activity against human A2780 cells xenografted in BALB/C nude mouse at 15 mg/kg, ip administered once every 3 days measured on day 15 relative to vehicle-treated control; format: functional; settings: route intraperitoneal, read-out: TGI
[18] = Acute toxicity in ip dosed KM mouse; format: organism-based; settings: in vivo
[19] = test system: HUVEC; assay: cells; settings: Homo sapiens, 48 h
Description: Antiproliferative activity against HUVEC after 48 hrs by MTT assay

[20] = test system: A2780; assay: Antitumor activity against human A2780 cells xenografted in BALB/C nude mouse at 30 mg/kg, ip administered once every 3 days measured on day 15 relative to vehicle-treated control; format: functional; settings: route intraperitoneal, read-out: TGI
[21] = Acute toxicity in KM mouse assessed as survival at 300 mg/kg, ip measured on day 14 relative to vehicle-treated control; format: organism-based; design: dose 300 mg/kg, route intraperitoneal; settings: in vivo
[22] = test system: A2780; assay: Cell cycle arrest in human A2780 cells assessed as reduction at G0/G1 phase at 20 to 80 nM after 24 hrs by propidium iodide staining-based flow cytometry; format: functional
[23] = test system: HUVEC; assay: Antiangiogenic activity against HUVEC assessed as disruption of tubule formation at 100 nM after overnight incubation by matrigel assay; format: functional, cell-based; settings: Homo sapiens
[24] = Acute toxicity in KM mouse assessed as survival at 275 mg/kg, ip measured on day 14 relative to vehicle-treated control; format: organism-based; design: dose 275 mg/kg, route intraperitoneal; settings: in vivo
[25] = test system: A549; assay: cells; settings: Homo sapiens, A549, 48 h
[26] = test system: A2780; assay: Antitumor activity against human A2780 cells xenografted in BALB/C nude mouse assessed as loss in tumor weight at 15 to 30 mg/kg, ip administered once every 3 days measured after 15 days relative to vehicle-treated control; format: functional, organism-based
[27] = test system: T29; assay: Induction of nitric oxide generation in human T29 cells at 100 uM after 150 mins by Griess assay; format: functional, cell-based
[28] = Antiproliferative activity against cisplatin-resistant human SKOV3 cells after 48 hrs by MTT assay; settings: SK-OV-3, 48 h
[29] = Antiproliferative activity against human T29 cells after 48 hrs by MTT assay; settings: T29, 48 h
[30] = test system: HeLa; assay: cells; settings: Homo sapiens, 48 h
[31] = test system: A2780; assay: Cell cycle arrest in human A2780 cells assessed as reduction at S phase at 20 to 80 nM after 24 hrs by propidium iodide staining-based flow cytometry; format: functional
[32] = Antiproliferative activity against human A2780/CDDP cells after 48 hrs by MTT assay
[33] = Acute toxicity in KM mouse assessed as survival at 500 mg/kg, ip measured on day 14 relative to vehicle-treated control; format: organism-based; design: dose 500 mg/kg, route intraperitoneal; settings: in vivo
[34] = test system: A2780; assay: Anticlonogenic activity against human A2780 cells assessed as inhibition of colony formation of cells after 48 hrs by gentian violet staining-based assay; format: functional, cell-based
[35] = test system: A2780; assay: Induction of apoptosis in human A2780 cells assessed as reduction in Bcl-2 protein expression after 24 hrs by Western blotting analysis; format: functional, cell-based
[36] = test system: MDA-MB-231; assay: Anticlonogenic activity against human gemcitabine-resistant human MDA-MB-231 cells assessed as inhibition of colony formation of cells at 20 to 80 nM after 48 hrs by gentian violet staining-based assay; format: functional, cell-based
[37] = Acute toxicity in KM mouse assessed as survival at 200 mg/kg, ip measured on day 14 relative to vehicle-treated control; format: organism-based; design: dose 200 mg/kg, route intraperitoneal; settings: in vivo
[38] = test system: MDA-MB-231; assay: Anticlonogenic activity against human gemcitabine-resistant human MDA-MB-231 cells assessed as inhibition of colony formation of cells after 48 hrs by gentian violet staining-based assay; format: functional, cell-based
[39] = test system: A2780; assay: Cell cycle arrest in human A2780 cells assessed as accumulation at G2/M phase at 20 to 80 nM after 24 hrs by propidium iodide staining-based flow cytometry; format: functional
[40] = Acute toxicity in KM mouse assessed as survival at 225 mg/kg, ip measured on day 14 relative to vehicle-treated control; format: organism-based; design: dose 225 mg/kg, route intraperitoneal; settings: in vivo

Cc1cc(=O)oc2cc(OCCOc3no[n+]([O-])c3S(=O)(=O)c3ccccc3)ccc12
Activity [1]: Dose-dependent effect
Activity [2]: inactive
Activity [3]: inactive
Activity [4]: Active
IC50 [5]: 14 nM
Activity [6]: Dose-dependent effect
Activity [7]: 97 µM
IC50 [8]: 83 nM
Activity [9]: 2.5%
Activity [10]: Active
Activity [11]: Active
Activity [12]: 2.5%
Activity [13]: Dose-dependent effect
inhibition [14]: Active
survival at 14 day [15]: 60%
Activity [16]: Active
inhibition in vivo at 15 mg/kg [17]: 55.8%
LD50 [18]: 264 mg/kg
IC50 [19]: 34 nM
inhibition in vivo at 30 mg/kg [20]: 65.5%
survival at 14 day [21]: 30%
Activity [22]: Active
Activity [23]: Active
survival at 14 day [24]: 40%
IC50 [25]: 24 nM
Activity [26]: Active
Activity [27]: Active
IC50 [28]: 140 nM
IC50 [29]: 14 nM
IC50 [30]: 53 nM
Activity [31]: Active
IC50 [32]: 62 nM
survival at 14 day [33]: 10%
inhibition [34]: Dose-dependent effect
Activity [35]: Dose-dependent effect
inhibition [36]: Active
survival at 14 day [37]: 100%
inhibition [38]: Dose-dependent effect
Activity [39]: 64.9%
survival at 14 day [40]: 90%
